Measured values from patent US20240207263A1, “SELECTIVE MODULATORS OF ATAXIA TELA[…] (ATM) KINASE AND USES THEREOF” (priority 2021, published 2024).
Read-outs that look alike come from different tables or passages of the source.

Columns and labels:
[1] = tested on: phosp-KAP1 in MCF-7 cells; assay: phosp-KAP1 MCF-7 cellular potency assay (Assay f); format: cell-based; settings: Homo sapiens
Experimental: Assay f): phosp-KAP1 MCF-7 Cellular Potency
MCF-7 cells were seeded to a 384-well cell-culture plate, 25 μl/well which were incubated at 37° C. and 5% CO2 for 24 hr. Test compounds were added to the 384-well plates. Etoposide at final concentration of 100 μM was then added to each well except Vehicle control wells, which were incubated at 37° C. and 5% CO2 for 1 hour. After medium removal, cells were fixed by the addition of 25 μl/well of 8% paraformaldehyde in PBSA and incubated for 20 minutes at room temperature. After the plates were rinsed 3 times with PBSA, 50 ul permeabilization buffer (0.1% Triton X-100 in PBS) was added and the plates were incubated for 20 minutes at room temperature. After the plates were rinsed with PBSA, block the cells by adding 50 μl of Odyssey Blocking Buffer in 384-well plate and then incubate for 1.5 hours at room temperature. Remove blocking buffer by Plate washer (BioTek ELx405 select CW). […] The plates were rinsed 5 times with PBST (0.1% Tween-20 in PBS).
• 1) Fluorescence intensity (FI) was detected for each well. • 2) % inhibition is calculated as follow:
[formula] • FIpositive: The average FI for the positive controls across the plate. • FIvehicle: The average FI for negative controls across the plate. • 3) Calculate IC50 and Plot effect-dose curve of compounds: • Calculate IC50 by fitting % inhibition values and log of compound concentrations to nonlinear regression (dose response−variable slope) with Graphpad prism 6.0.
Y=Bottom+(Top−Bottom)/(1+10^((Log IC50−X)*HillSlope)) • X: log of compounds concentration; Y: % inhibition

[2] = molecular target: ATM (Homo sapiens (Human), UniProt Q13315); assay: biochemical; format: biochemical; settings: read-out: ATM IC50
Sequence of ATM (Q13315 whole entry, looked up): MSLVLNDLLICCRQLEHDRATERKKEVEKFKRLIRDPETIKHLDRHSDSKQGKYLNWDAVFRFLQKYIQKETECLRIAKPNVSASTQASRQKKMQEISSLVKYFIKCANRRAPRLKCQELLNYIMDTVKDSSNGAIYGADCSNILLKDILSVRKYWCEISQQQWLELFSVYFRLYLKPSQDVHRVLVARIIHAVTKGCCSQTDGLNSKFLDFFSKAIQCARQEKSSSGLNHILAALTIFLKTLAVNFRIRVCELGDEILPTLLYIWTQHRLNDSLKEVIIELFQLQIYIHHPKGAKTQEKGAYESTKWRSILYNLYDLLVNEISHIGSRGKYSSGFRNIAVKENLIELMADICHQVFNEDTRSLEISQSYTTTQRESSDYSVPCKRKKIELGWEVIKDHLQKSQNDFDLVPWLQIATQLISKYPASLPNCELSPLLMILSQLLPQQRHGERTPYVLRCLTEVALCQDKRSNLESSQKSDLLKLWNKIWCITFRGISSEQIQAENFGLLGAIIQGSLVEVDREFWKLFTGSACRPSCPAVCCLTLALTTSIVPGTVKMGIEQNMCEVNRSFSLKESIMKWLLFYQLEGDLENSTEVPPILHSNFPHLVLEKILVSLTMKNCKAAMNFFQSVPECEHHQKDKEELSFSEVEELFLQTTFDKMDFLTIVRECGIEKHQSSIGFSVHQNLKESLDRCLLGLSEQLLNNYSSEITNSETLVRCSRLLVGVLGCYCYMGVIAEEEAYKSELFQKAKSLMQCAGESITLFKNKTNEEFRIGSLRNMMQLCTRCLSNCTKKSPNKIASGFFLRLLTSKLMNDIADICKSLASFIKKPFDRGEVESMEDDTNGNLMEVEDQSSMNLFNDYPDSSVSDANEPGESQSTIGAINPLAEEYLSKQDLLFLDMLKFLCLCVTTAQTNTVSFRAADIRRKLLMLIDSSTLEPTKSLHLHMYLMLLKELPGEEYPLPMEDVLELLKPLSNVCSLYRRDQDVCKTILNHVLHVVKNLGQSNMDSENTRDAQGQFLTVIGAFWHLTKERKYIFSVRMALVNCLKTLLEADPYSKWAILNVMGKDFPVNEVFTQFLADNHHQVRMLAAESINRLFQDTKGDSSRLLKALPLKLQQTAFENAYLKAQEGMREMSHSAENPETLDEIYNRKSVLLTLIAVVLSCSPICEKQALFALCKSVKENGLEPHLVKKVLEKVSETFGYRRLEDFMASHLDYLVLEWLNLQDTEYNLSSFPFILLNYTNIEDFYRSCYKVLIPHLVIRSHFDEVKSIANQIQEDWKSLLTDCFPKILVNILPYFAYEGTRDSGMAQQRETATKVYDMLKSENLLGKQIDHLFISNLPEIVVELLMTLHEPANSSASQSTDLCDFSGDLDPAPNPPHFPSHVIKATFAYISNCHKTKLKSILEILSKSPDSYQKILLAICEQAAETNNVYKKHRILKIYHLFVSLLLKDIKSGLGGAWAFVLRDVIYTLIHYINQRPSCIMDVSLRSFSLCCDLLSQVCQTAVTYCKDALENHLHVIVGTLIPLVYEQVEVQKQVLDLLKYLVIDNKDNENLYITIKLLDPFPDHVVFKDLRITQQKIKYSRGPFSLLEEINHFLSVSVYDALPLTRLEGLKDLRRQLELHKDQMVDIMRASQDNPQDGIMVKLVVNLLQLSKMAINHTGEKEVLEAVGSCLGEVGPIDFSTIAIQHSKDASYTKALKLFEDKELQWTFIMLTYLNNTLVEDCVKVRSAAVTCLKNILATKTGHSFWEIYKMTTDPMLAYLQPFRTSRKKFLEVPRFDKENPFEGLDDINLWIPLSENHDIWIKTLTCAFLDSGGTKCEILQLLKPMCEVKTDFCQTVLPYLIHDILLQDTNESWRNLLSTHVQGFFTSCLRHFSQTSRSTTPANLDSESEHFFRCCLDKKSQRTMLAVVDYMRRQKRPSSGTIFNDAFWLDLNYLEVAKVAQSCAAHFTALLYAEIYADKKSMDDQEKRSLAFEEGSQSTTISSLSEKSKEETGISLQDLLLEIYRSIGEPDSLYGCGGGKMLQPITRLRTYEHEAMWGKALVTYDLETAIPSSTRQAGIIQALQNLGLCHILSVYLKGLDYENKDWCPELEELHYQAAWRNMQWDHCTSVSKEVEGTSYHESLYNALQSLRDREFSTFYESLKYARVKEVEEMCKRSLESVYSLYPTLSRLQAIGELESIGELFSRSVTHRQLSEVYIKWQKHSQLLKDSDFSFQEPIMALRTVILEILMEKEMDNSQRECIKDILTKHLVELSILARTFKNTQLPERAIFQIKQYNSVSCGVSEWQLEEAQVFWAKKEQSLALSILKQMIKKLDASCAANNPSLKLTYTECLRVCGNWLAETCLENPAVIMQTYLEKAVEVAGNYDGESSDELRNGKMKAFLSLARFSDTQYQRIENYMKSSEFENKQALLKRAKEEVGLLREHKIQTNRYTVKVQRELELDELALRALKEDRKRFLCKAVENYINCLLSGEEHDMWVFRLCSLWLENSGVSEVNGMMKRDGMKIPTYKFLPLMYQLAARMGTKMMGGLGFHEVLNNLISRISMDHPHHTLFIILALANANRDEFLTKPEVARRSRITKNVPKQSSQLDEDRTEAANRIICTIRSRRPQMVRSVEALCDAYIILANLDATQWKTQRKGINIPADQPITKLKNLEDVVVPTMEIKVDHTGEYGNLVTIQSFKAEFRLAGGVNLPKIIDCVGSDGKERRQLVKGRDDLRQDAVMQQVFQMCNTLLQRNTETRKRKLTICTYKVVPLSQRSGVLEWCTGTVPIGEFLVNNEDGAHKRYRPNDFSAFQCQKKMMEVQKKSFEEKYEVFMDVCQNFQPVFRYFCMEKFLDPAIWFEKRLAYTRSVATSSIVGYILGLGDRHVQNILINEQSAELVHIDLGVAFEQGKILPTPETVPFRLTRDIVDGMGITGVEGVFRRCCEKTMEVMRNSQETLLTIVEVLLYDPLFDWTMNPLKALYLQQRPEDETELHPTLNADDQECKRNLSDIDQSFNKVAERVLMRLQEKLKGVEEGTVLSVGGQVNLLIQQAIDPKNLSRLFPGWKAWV
Excerpt: Assay a): ATM Biochemical Potency
Data was collected by Caliper.

[3] = tested on: FaDu xenograft; assay: FaDu xenograft model, radiation combination (Assay i); format: in vivo, mouse; settings: for Inhibition (% TGI) Combo: combo with IR
Experimental: Assay i): FaDu Xenograft Model
Cell culture: FaDu tumor cells were cultured in an EMEM medium containing inactivated 10% fetal bovine serum, 100 U/ml penicillin and 100 μg/ml streptomycin in a 37° C., 5% CO2 incubator.
Inoculation and grouping: Xenografts were established by implantation of 100 μl of Fadu tumor cell suspension (5×10^6 cells/mouse) subcutaneously into the right flank of female immune-compromised BALB/c nude mice at least 6 weeks of age. Tumours were measured in two dimensions with calipers and the tumour volume was calculated using the following formula: tumor volume=(length×width^2)×0.5. When the average tumor volume reached 100 to 150 mm^3, tumour-bearing mice were randomized into treatment groups.
Treatment and tumor assessment: Animals received 3 to 6 cycles of treatment with compounds combined with radiation therapy. Each cycle included 5 consecutive treatment day plus 2 days' rest. Ionizing radiation was administered using a fractionated schedule of 2 Gy per day administered over 5 consecutive days (total radiation dose=10 Gy/cycle). Compound was given orally 10 minutes before irradiation. The tumour volume and body weight of the mice were measured twice weekly.
Statistical Analysis: The One-Way ANOVA test was used for statistical analysis of tumor volume between groups, and p<0.05 was considered as a significant difference.

[4] = molecular target: ATM (phospho-ATM Ser1981) in SN38 treated HT-29 cells (Homo sapiens (Human), UniProt Q13315); assay: cell-based
Sequence of ATM (phospho-ATM Ser1981) in SN38 treated HT-29 cells (Q13315 whole entry, looked up): as above
Experimental: Assay g): ATM SN-38 HT-29 Cellular Potency
SN38 causes single strand DNA breaks (SSBs) which are converted to double strand breaks (DSBs) during replication. ATM plays role of repairing DSBs. Inhibition of ATM was evaluated in SN38 treated HT-29 cells (ATCC, Cat #HTB-38) by high-Content Imaging System
The graphical views were then generated using Prism 7.0 (Graphpad).

[5] = molecular target: PI3Kα (p110α/p85a) (Homo sapiens (Human), UniProt P42336); assay: PI3K biochemical potency assay (Assay c), PI3Kα
Experimental: Assay c): PI3K Biochemical Potency
(§1) 2.5 μl of kinase solution was added to each well of the 384-well assay plate, which contains 2.5 μl of compounds with serially diluted concentration. 2× substrate solution was prepared with PIP2 substrate and ATP in 1× kinase reaction buffer at 2-fold of the final concentration of each reagent in the assay. 5 μl of substrate solution was added to each well of the assay plate to start reaction. The assay plate was incubated at room temperature for 1 hour. 5 μl reaction mix was transferred to a new 384 well plate. 5 μl of ADP-Glo reagent (Promega, Cat. No. v9102/3) was added to each well of the new assay plate to stop the reaction. The plate was shaken slowly and equilibrated for 40 minutes. 10 μl kinase detection reagents were added to each well, which was equilibrated for 60 minutes before read on a plate reader (Envision) for luminescence.

[6] = molecular target: PIK3Cδ (Homo sapiens (Human), UniProt O00329); assay: PI3K biochemical potency assay (Assay c), PIK3Cδ
Sequence of PIK3Cδ (O00329 whole entry, looked up): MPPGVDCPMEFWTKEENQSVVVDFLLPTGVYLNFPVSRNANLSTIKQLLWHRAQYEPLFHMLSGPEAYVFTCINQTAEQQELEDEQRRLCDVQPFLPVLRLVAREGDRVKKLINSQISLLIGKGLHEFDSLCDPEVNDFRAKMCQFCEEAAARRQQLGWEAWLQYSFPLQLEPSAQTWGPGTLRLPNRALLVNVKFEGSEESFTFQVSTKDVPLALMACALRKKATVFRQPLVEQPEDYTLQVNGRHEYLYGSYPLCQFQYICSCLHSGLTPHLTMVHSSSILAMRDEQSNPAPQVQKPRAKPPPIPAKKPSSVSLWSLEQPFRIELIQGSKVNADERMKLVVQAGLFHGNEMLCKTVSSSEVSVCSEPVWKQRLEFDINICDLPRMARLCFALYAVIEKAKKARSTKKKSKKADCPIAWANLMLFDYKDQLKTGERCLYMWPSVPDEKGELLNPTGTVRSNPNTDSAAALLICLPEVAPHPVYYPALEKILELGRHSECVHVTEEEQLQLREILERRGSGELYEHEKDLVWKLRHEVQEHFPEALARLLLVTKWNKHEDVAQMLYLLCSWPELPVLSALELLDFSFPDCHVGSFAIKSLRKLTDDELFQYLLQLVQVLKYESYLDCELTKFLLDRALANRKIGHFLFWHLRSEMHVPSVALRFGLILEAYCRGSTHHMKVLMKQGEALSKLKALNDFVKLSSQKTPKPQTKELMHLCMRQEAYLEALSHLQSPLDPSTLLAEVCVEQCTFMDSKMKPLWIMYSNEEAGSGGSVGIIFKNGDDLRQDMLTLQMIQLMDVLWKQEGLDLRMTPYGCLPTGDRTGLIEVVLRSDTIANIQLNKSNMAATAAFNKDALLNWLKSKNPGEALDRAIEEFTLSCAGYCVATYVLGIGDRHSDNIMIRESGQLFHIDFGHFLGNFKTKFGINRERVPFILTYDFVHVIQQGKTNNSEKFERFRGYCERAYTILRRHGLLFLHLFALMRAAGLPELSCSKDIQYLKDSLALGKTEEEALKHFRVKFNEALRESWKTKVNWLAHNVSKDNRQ
Sequence of PIK3Cδ (P27986 whole entry partner, looked up): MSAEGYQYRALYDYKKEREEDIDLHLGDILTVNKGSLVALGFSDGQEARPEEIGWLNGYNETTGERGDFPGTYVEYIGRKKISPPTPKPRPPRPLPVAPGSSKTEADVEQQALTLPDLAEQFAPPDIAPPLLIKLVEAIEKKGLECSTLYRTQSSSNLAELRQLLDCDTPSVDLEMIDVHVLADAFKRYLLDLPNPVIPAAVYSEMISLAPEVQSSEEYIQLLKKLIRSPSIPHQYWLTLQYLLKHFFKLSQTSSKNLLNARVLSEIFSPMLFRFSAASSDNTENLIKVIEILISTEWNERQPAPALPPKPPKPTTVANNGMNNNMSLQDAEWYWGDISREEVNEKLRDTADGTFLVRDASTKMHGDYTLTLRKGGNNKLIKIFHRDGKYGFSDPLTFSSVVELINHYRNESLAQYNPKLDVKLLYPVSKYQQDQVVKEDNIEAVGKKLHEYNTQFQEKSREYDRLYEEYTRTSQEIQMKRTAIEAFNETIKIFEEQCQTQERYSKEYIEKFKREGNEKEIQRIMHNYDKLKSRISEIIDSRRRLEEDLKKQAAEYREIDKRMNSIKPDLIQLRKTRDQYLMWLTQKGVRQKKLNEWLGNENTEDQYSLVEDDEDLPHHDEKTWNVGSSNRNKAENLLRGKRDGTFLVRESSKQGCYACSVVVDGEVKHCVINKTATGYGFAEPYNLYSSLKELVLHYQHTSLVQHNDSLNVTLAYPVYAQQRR
Experimental: Assay c): PI3K Biochemical Potency
as §1

[7] = molecular target: PIK3Cβ (p110β) (Homo sapiens (Human), UniProt P42338); assay: PI3K biochemical potency assay (Assay c), PIK3Cβ
Experimental: Assay c): PI3K Biochemical Potency
as §1

[8] = molecular target: mTOR (Homo sapiens (Human), UniProt P42345); assay: mTOR biochemical potency assay (Assay d)
Experimental: Assay d): mTOR Biochemical Potency
Solution of mTOR enzymes (Millipore, Cat. No. 14-770) was prepared in 1× kinase buffer at 4-fold of the final concentration (final concentration: 6 nM) in the assay. 2.5 μl of kinase solution was added to each well of the 384-well assay plate, which contains 2.5 μl of compounds with serially diluted concentration. 2× substrate solution was prepared with ULight-4E-BP1 (Thr37/46) Peptide (PE, Cat. No. TRF0128-M) and ATP in 1× kinase reaction buffer at 2-fold of the final concentration of each reagent in the assay. 5 μl of substrate solution was added to each well of the assay plate to start reaction. The assay plate was incubated at room temperature for 30 minutes. Detection solution of kinase quench buffer (EDTA) and Eu-anti-phospho-4E-BP1 antibody (Thr37/46) (PE, Cat. No. TRF0216-M) were prepared at 2-fold the desired final concentrations of each reagent in Lance detection buffer. 10 μl of detection solution buffer was added to each well of the assay plate.

[9] = molecular target: PIK3Cγ (pp110γ) (Homo sapiens (Human), UniProt P48736); assay: PI3K biochemical potency assay (Assay c), PIK3Cγ
Experimental: Assay c): PI3K Biochemical Potency
as §1

[10] = molecular target: ATR (Homo sapiens (Human), UniProt Q13535); assay: ATR biochemical potency assay (Assay b)
Experimental: Assay b): ATR Biochemical Potency
The plate was incubated at room temperature for 10 minutes. 2× peptide solutions were prepared with FAM-labeled peptide and ATP in the 1× kinase base buffer. […] 40 μl of stop buffer was added to stop reaction. Data were collected by Caliper.

[11] = MCF7, read-out: Etoposide MCF-7 cellular IC50
[12] = total IR 30 Gy (3 cycles), 50 mg/kg PO. TID
[13] = total IR 30 Gy (3 cycles), 150 mg/kg PO. TID
[14] = MCF7, MCF-7 cells, etoposide, read-out: Etoposide MCF-7 cellular IC50
[15] = HT-29 cells, SN-38, read-out: SN-38 HT-29 cellular IC50

SMILES	IC50 [1, 11] [nM]	IC50 [2] [nM]	IC50 [1, 14] [nM]	IC50 [4, 15] [nM]	IC50 [10] [nM]	further results
CC(C)n1c(=O)n(C)c2nnc3ccc(-c4ccc(COCCN5CC6CC6C5)nc4)cc3c21 (centres unmarked) [Example 1, 8-(6-((2-(3-azabicyclo[3.1.0]hexan-3-yl)ethoxy)methyl)pyridin-3-yl)-1-isopropyl-3-methyl-1H-imidazo[4,5-c]cinnolin-2(3H)-one]	40	16	–	–	–	Inhibition (% TGI) Combo [3, 12]: 76.8 ± 2.72 % TGI; Inhibition (% TGI) Combo [3, 13]: 92.0 ± 1.31 % TGI
CC(C)n1c(=O)n(C)c2nnc3ccc(-c4ccc(COCCN5CCC(F)CC5)nc4)cc3c21 [Example 5, 8-(6-((2-(4-fluropiperidin-1-yl)ethoxy)methyl)pyridin-3-yl)-1-isopropyl-3-methyl-1H-imidazo[4,5-c]cinnolin-2(3H)-one]	–	14	27	130	–	Inhibition (% TGI) Combo [3, 12]: 79.6 ± 2.78 % TGI; Inhibition (% TGI) Combo [3, 13]: 91.9 ± 1.16 % TGI
CC(C)n1c(=O)n(C)c2nnc3ccc(-c4ccc(COCCN5CCC(C)(C)C5)nc4)cc3c21 [Example 36, 8-(6-((2-(3,3-dimethylpyrrolidin-1-yl)ethoxy)methyl)pyridin-3-yl)-1-isopropyl-3-methyl-1H-imidazo[4,5-c]cinnolin-2(3H)-one]	20	4.7	–	20	–	–
CO[C@H]1CCN(CCOCc2ccc(-c3ccc4nnc5c(c4c3)n(C(C)C)c(=O)n5C)cn2)C1 [Example 43, (S)-1-isopropyl-8-(6-((2-(3-methoxypyrrolidin-1-yl)ethoxy)methyl)pyridin-3-yl)-3-methyl-1H-imidazo[4,5-c]cinnolin-2(3H)-one]	–	12	–	92	–	–
CC(C)n1c(=O)n(C)c2nnc3ccc(-c4ccc([C@@H](C)OCCN5CCC6(CC6)C5)nc4)cc3c21 [Example 53, (R)-8-(6-(1-(2-(5-azaspiro[2.4]heptan-5-yl)ethoxy)ethyl)pyridin-3-yl)-1-isopropyl-3-methyl-1H-imidazo[4,5-c]cinnolin-2(3H)-one]	–	4.2	9	11	> 10000	IC50 [5]: > 10000 nM; IC50 [6]: > 10000 nM; IC50 [7]: > 10000 nM; IC50 [8]: > 10000 nM; IC50 [9]: > 10000 nM
CO[C@@H]1CCN(CCO[C@H](C)c2ccc(-c3ccc4nnc5c(c4c3)n(C(C)C)c(=O)n5C)cn2)C1 [Example 57, 1-isopropyl-8-(6-((R)-1-(2-((R)-3-methoxypyrrolidin-1-yl)ethoxy)ethyl)pyridin-3-yl)-3-methyl-1H-imidazo[4,5-c]cinnolin-2(3H)-one]	–	4.2	20	19	–	–
CC(C)n1c(=O)n(C)c2nnc3ccc(-c4ccc([C@@H](C)OCCN5CCCC5)nc4)cc3c21 [Example 62, (R)-1-isopropyl-3-methyl-8-(6-(1-(2-(pyrrolidin-1-yl)ethoxy)ethyl)pyridin-3-yl)-1,3-dihydro-2H-imidazo[4,5-c]cinnolin-2-one]	–	7.8	–	–	> 10000	tumor response in FaDu xenograft efficacy study ([3]; oral compound in combination with IR (2 Gy per day, 5 days per cycle)): tumor xenograft regression was observed and tumors did not relapse until the end of the study; Inhibition (% TGI) Combo ([3]; total IR 30 Gy (3 cycles), 45 mg/kg PO. BID): 98.7 ± 0.51 % TGI; Inhibition (% TGI) Combo ([3]; total IR 60 Gy (6 cycles), 10 mg/kg PO. BID): 80.4 ± 2.20 % TGI; Inhibition (% TGI) Combo ([3]; total IR 60 Gy (6 cycles), 30 mg/kg PO. BID): 93.6 ± 1.33 % TGI; IC50 ([8]; read-out: mTor IC50): > 10000 nM; IC50 [4]: 21 nM
CC(C)n1c(=O)n(C)c2nnc3ccc(-c4ccc([C@@H](C)OCCN5CCC(F)CC5)nc4)cc3c21 [Example 69, (R)-8-(6-(1-(2-(4-fluoropiperidin-1-yl)ethoxy)ethyl)pyridin-3-yl)-1-isopropyl-3-methyl-1H-imidazo[4,5-c]cinnolin-2(3H)-one]	–	5.2	34	47	–	–
CC(C)n1c(=O)n(C)c2nnc3ccc(-c4ccc([C@@H](C)OCCN5CCC(C)(C)CC5)nc4)cc3c21 [Example 73, (R)-8-(6-(1-(2-(4,4-dimethylpiperidin-1-yl)ethoxy)ethyl)pyridin-3-yl)-1-isopropyl-3-methyl-1H-imidazo[4,5-c]cinnolin-2(3H)-one]	9.1	3.5	–	9.1	–	–
C[C@@H](OCCN1CCC2(CC1)CC2)c1ccc(-c2ccc3nnc4c(c3c2)n(C2CCOCC2)c(=O)n4C)cn1 [Example 107, (R)-8-(6-(1-(2-(6-azaspiro[2.5]octan-6-yl)ethoxy)ethyl)pyridin-3-yl)-3-methyl-1-(tetrahydro-2H-pyran-4-yl)-1H-imidazo[4,5-c]cinnolin-2(3H)-one]	12	–	–	–	> 10000	IC50 ([8]; read-out: mTor IC50): > 10000 nM
CO[C@@H]1CCN(CCO[C@H](C)c2ccc(-c3ccc4nnc5c(c4c3)n(C3CCOCC3)c(=O)n5C)cn2)C1 [Example 112, 8-(6-((R)-1-(2-((R)-3-methoxypyrrolidin-1-yl)ethoxy)ethyl)pyridin-3-yl)-3-methyl-1-(tetrahydro-2H-pyran-4-yl)-1H-imidazo[4,5-c]cinnolin-2(3H)-one]	–	7.8	20	–	> 10000	Inhibition (% TGI) Combo ([3]; total IR 40 Gy (4 cycles), 30 mg/kg PO. BID): 77.3 ± 1.67 % TGI; Inhibition (% TGI) Combo ([3]; total IR 40 Gy (4 cycles), 60 mg/kg PO. BID): 79.6 ± 4.20 % TGI; Inhibition (% TGI) Combo ([3]; total IR 40 Gy (4 cycles), 100 mg/kg PO. BID): 82.9 ± 1.77 % TGI; IC50 ([8]; read-out: mTor IC50): > 10000 nM; IC50 [4]: 18 nM
CO[C@H]1C[C@@H](n2c(=O)n(C)c3nnc4ccc(-c5ccc(COCCN6CC7CC7C6)nc5)cc4c32)C1 (stereo partly drawn) [Example 175, 8-(6-((2-(3-azabicyclo[3.1.0]hexan-3-yl)ethoxy)methyl)pyridin-3-yl)-1-(cis-3-methoxycyclobutyl)-3-methyl-1H-imidazo[4,5-c]cinnolin-2(3H)-one]	–	25	33	170	–	–
CC(C)n1c(=O)n(C)c2nnc3cc(F)c(-c4ccc(COCCN5CCC(F)CC5)nc4)cc3c21 [Ref compd 1, 7-fluoro-8-(6-((2-(4-fluoropiperidin-1-yl)ethoxy)methyl)pyridin-3-yl)-1-isopropyl-3-methyl-1H-imidazo[4,5-c]cinnolin-2(3H)-one, reference compound]	–	25	–	273	–	–
